The values that follow are results of earlier work, collected in US20250169531A1 (priority 2023, published 2025).

For this data set the following is noted: at 25° C.

SMILES strings stand for the structures.

In the case of `CN1CCCC1c1cccnc1` (stereo not shown) [Nicotine], the “pka of the nitrogen of the pyridine ring” value is given as 3.41.
